Measurements as given in patent US20200325177A1, “METHODS OF MAKING STREPTOGRAMIN COMPOSITIONS AND THE USE THEREOF” (THE REGENTS OF THE UNIVERSITY OF CALIFORNIA, priority 2017, published 2020).
In brackets after ≈: the same amount, converted by molar mass. Read-outs that look alike come from different tables or passages of the source.

Columns and labels:
S. aureus = test: MIC, Gram-positive bacteria: S. aureus (strains not named); type: cell-based; conditions: Staphylococcus aureus, read-out: Minimal Inhibitory Concentration (MIC) S. aureus
[1] = system: large subunit of the E. coli ribosome; test: cryo-EM structure bound to ribosome; type: binding; conditions: 2.8 Angstrom resolution cryo-EM; isoquinoline sidechain reaches into the P-site
Description: FIGS. 7A-7B. […] FIG. 7B depicts the structure of SAO110224.

S. pneumoniae = test: MIC, Gram-positive bacteria: S. pneumoniae; type: cell-based; conditions: Streptococcus pneumoniae, column 10, read-out: Minimal Inhibitory Concentration (MIC) S. pneumoniae
E. faecium ATCC 35667 = test: MIC, Gram-positive bacteria: E. faecium ATCC 35667; type: cell-based; conditions: Enterococcus faecium, ATCC35667, column 2, read-out: Minimal Inhibitory Concentration (MIC) E. faecium ATCC 35667
H. influenzae ATCC 49247 = test: MIC, Gram-negative bacteria: H. influenzae ATCC 49247; type: cell-based; conditions: Haemophilus influenzae, ATCC49247, read-out: Minimal Inhibitory Concentration (MIC) H. influenzae ATCC 49247
[2] = system: P. aeruginosa MDR clinical isolate; test: MIC, Gram-negative bacteria: P. aeruginosa MDR clinical isolate; type: cell-based; conditions: Pseudomonas aeruginosa, read-out: Minimal Inhibitory Concentration (MIC) P. aeruginosa MDR clinical isolate
Gram-Negative Organisms = test: microbe, parasite or virus in culture; type: cell-based
[3] = system: S. aureus Vat A streptogramin; test: MIC, Gram-positive bacteria: S. aureus Vat A streptogramin; type: cell-based; conditions: Staphylococcus aureus; Gram-positive; column 5; read-out: Minimal Inhibitory Concentration (MIC) S. aureus Vat A streptogramin
P. aeruginosa ATCC 27853 = test: MIC, Gram-negative bacteria: P. aeruginosa ATCC 27853; type: cell-based; conditions: Pseudomonas aeruginosa, ATCC27853, read-out: Minimal Inhibitory Concentration (MIC) P. aeruginosa ATCC 27853
E. faecalis = test: MIC, Gram-positive bacteria: E. faecalis; type: cell-based; conditions: Enterococcus faecalis, column 1, read-out: Minimal Inhibitory Concentration (MIC) E. faecalis
[4] = system: S. aureus Linezolid-resistant; cfr; test: MIC, Gram-positive bacteria: S. aureus Linezolid-resistant; cfr; type: cell-based; conditions: Staphylococcus aureus, column 9, read-out: Minimal Inhibitory Concentration (MIC) S. aureus Linezolid-resistant
[5] = system: K. pneumoniae multidrug-resistant; test: MIC, Gram-negative bacteria: K. pneumoniae multidrug-resistant; type: cell-based; conditions: Klebsiella pneumoniae, read-out: Minimal Inhibitory Concentration (MIC) K. pneumoniae multidrug-resistant
E. faecium VRE; vanA = test: MIC, Gram-positive bacteria: E. faecium VRE; vanA; type: cell-based; conditions: Enterococcus faecium, column 3, read-out: Minimal Inhibitory Concentration (MIC) E. faecium VRE
[6] = first unnamed S. aureus column (c4)
[7] = fourth unnamed S. aureus column (c8)
[8] = second unnamed S. aureus column (c6)
[9] = third unnamed S. aureus column (c7)
[10] = Acinetobacter baumannii, ATCC19606, read-out: Minimal Inhibitory Concentration (MIC), A. baumannii ATCC 19606
[11] = Escherichia coli, ATCC25922, read-out: Minimal Inhibitory Concentration (MIC), E. coli ATCC 25922
[12] = Escherichia coli, read-out: Minimal Inhibitory Concentration (MIC), E. coli BAS2006, OMP C, OMP F
[13] = Escherichia coli, read-out: Minimal Inhibitory Concentration (MIC), E. coli olC efflux defective
[14] = Escherichia coli, read-out: Minimal Inhibitory Concentration (MIC), E. coli permeability mutant BAS1314, IMP4213ZAB::TN10
[15] = Escherichia coli, read-out: Minimal Inhibitory Concentration (MIC), E. coli ΔompC768, KanR insert
[16] = Klebsiella pneumoniae, ATCC43816, read-out: Minimal Inhibitory Concentration (MIC), K. pneumoniae ATCC 43816

| SMILES | MIC (S. aureus; [6]) | MIC (S. aureus; [7]) | MIC (S. aureus; [8]) | MIC (S. aureus; [9]) | MIC (S. pneumoniae) | MIC (E. faecium ATCC 35667) | MIC (H. influenzae ATCC 49247) | MIC [2] | MIC (Gram-Negative Organisms; [10]) | MIC (Gram-Negative Organisms; [11]) | MIC (Gram-Negative Organisms; [12]) | MIC (Gram-Negative Organisms; [13]) | MIC (Gram-Negative Organisms; [14]) | MIC (Gram-Negative Organisms; [16]) | MIC [3] | MIC (P. aeruginosa ATCC 27853) | MIC (E. faecalis) | MIC [4] | MIC [5] | MIC (E. faecium VRE; vanA) | other results |
| --- | --- | --- | --- | --- | --- | --- | --- | --- | --- | --- | --- | --- | --- | --- | --- | --- | --- | --- | --- | --- | --- |
| CC1=C\[C@@H](O)CC(=O)Cc2nc(co2)C(=O)N2CCC[C@@H]2C(=O)O[C@H]([C@H](C)COC(=O)Nc2cc3ccccc3cn2)[C@H](C)/C=C/C(=O)NC\C=C\1 [SA0110224] | 4 µg/mL (≈ 5.6 µM) | 4 µg/mL (≈ 5.6 µM) | 4 µg/mL (≈ 5.6 µM) | 8 µg/mL (≈ 11.2 µM) | 16 µg/mL (≈ 22.4 µM) | 4 µg/mL (≈ 5.6 µM) | 2 µg/mL (≈ 2.8 µM) | > 64 µg/mL | > 64 µg/mL | > 64 µg/mL | 8 µg/mL (≈ 11.2 µM) | 1 µg/mL (≈ 1.4 µM) | 1 µg/mL (≈ 1.4 µM) | > 64 µg/mL | 16 µg/mL (≈ 22.4 µM) | > 64 µg/mL | > 64 µg/mL | > 64 µg/mL | > 64 µg/mL | 8 µg/mL (≈ 11.2 µM) | binding to ribosome seen in cryo-EM structure [1]: bound to large subunit of the E. coli ribosome; MIC (Gram-Negative Organisms; [15]): > 64 µg/mL |
| CC1=C\[C@@H](O)CC(=O)Cc2nc(co2)C(=O)N2CCC[C@@H]2C(=O)O[C@H]([C@@H](C)COC(=O)Nc2cc(C)on2)[C@H](C)/C=C/C(=O)NC\C=C\1 [SA0110115] | > 64 µg/mL | 64 µg/mL (≈ 95.8 µM) | > 64 µg/mL | > 64 µg/mL | 16 µg/mL (≈ 24 µM) | 32 µg/mL (≈ 47.9 µM) | 64 µg/mL (≈ 95.8 µM) | > 64 µg/mL | > 64 µg/mL | > 64 µg/mL | 64 µg/mL (≈ 95.8 µM) | 8 µg/mL (≈ 12 µM) | 16 µg/mL (≈ 24 µM) | > 64 µg/mL | > 64 µg/mL | > 64 µg/mL | > 64 µg/mL | > 64 µg/mL | > 64 µg/mL | > 64 µg/mL | – |
| CC1=C\[C@@H](O)CC(=O)Cc2nc(co2)C(=O)N2CCC[C@@H]2C(=O)O[C@H]([C@H](C)COC(=O)Nc2ccnc(Br)c2)[C@H](C)/C=C/C(=O)NC\C=C\1 [SA0110206] | 16 µg/mL (≈ 21.5 µM) | 16 µg/mL (≈ 21.5 µM) | 16 µg/mL (≈ 21.5 µM) | 32 µg/mL (≈ 43.1 µM) | 8 µg/mL (≈ 10.8 µM) | 8 µg/mL (≈ 10.8 µM) | 4 µg/mL (≈ 5.39 µM) | > 64 µg/mL | > 64 µg/mL | > 64 µg/mL | 16 µg/mL (≈ 21.5 µM) | 2 µg/mL (≈ 2.69 µM) | 2 µg/mL (≈ 2.69 µM) | > 64 µg/mL | > 64 µg/mL | > 64 µg/mL | > 64 µg/mL | > 64 µg/mL | > 64 µg/mL | 16 µg/mL (≈ 21.5 µM) | MIC (Gram-Negative Organisms; [15]): > 64 µg/mL |
| CC1=C\[C@@H](O)CC(=O)Cc2nc(co2)C(=O)N2CCC[C@@H]2C(=O)O[C@H](C(C)(C)C)[C@H](C)/C=C/C(=O)NC\C=C\1 [SA0306004] | 32 µg/mL (≈ 59.1 µM) | 32 µg/mL (≈ 59.1 µM) | 64 µg/mL (≈ 118 µM) | 64 µg/mL (≈ 118 µM) | 64 µg/mL (≈ 118 µM) | 32 µg/mL (≈ 59.1 µM) | > 64 µg/mL | > 64 µg/mL | > 64 µg/mL | > 64 µg/mL | 4 µg/mL (≈ 7.38 µM) | 4 µg/mL (≈ 7.38 µM) | 4 µg/mL (≈ 7.38 µM) | > 64 µg/mL | > 64 µg/mL | > 64 µg/mL | > 64 µg/mL | > 64 µg/mL | > 64 µg/mL | > 64 µg/mL | – |
| CC1=C\[C@@H](O)CC(=O)Cc2nc(co2)C(=O)N2CCC[C@@H]2C(=O)O[C@H]([C@@H](C)COC(=O)Nc2ccnc(Br)c2)[C@H](C)/C=C/C(=O)NC\C=C\1 [SA0110081] | > 64 µg/mL | 32 µg/mL (≈ 43.1 µM) | > 64 µg/mL | > 64 µg/mL | 32 µg/mL (≈ 43.1 µM) | 32 µg/mL (≈ 43.1 µM) | > 64 µg/mL | > 64 µg/mL | > 64 µg/mL | > 64 µg/mL | 32 µg/mL (≈ 43.1 µM) | 4 µg/mL (≈ 5.39 µM) | 32 µg/mL (≈ 43.1 µM) | > 64 µg/mL | > 64 µg/mL | > 64 µg/mL | > 64 µg/mL | > 64 µg/mL | > 64 µg/mL | > 64 µg/mL | – |
| CC1=C\[C@@H](O)CC(=O)Cc2nc(co2)C(=O)N[C@H](Cc2ccccc2)C(=O)O[C@H](C(C)C)[C@H](C)/C=C/C(=O)NC\C=C\1 [SA0202061] | 64 µg/mL (≈ 111 µM) | 64 µg/mL (≈ 111 µM) | 64 µg/mL (≈ 111 µM) | 64 µg/mL (≈ 111 µM) | 16 µg/mL (≈ 27.7 µM) | 32 µg/mL (≈ 55.4 µM) | > 64 µg/mL | > 64 µg/mL | > 64 µg/mL | > 64 µg/mL | 16 µg/mL (≈ 27.7 µM) | 4 µg/mL (≈ 6.92 µM) | 4 µg/mL (≈ 6.92 µM) | > 64 µg/mL | 64 µg/mL (≈ 111 µM) | > 64 µg/mL | 32 µg/mL (≈ 55.4 µM) | > 64 µg/mL | > 64 µg/mL | 64 µg/mL (≈ 111 µM) | – |
| COc1ccc(NC(=O)OC[C@@H](C)[C@H]2OC(=O)[C@H]3CCCN3C(=O)c3coc(n3)CC(=O)C[C@H](O)/C=C(C)/C=C/CNC(=O)/C=C/[C@H]2C)cc1 [SA0110185] | 32 µg/mL (≈ 46.2 µM) | 16 µg/mL (≈ 23.1 µM) | 16 µg/mL (≈ 23.1 µM) | 32 µg/mL (≈ 46.2 µM) | 32 µg/mL (≈ 46.2 µM) | 16 µg/mL (≈ 23.1 µM) | 16 µg/mL (≈ 23.1 µM) | > 64 µg/mL | > 64 µg/mL | > 64 µg/mL | 64 µg/mL (≈ 92.4 µM) | 2 µg/mL (≈ 2.89 µM) | 4 µg/mL (≈ 5.77 µM) | > 64 µg/mL | > 64 µg/mL | > 64 µg/mL | > 64 µg/mL | > 64 µg/mL | > 64 µg/mL | 32 µg/mL (≈ 46.2 µM) | MIC (Gram-Negative Organisms; [15]): > 64 µg/mL |
